Measured values published in patent publication US6916797B2, “α-arylethylpiperazine derivatives as neurokinin antagonists” (UCB, S.A., priority 2000, dated 2005).

Tests used:
[1] = test system: verapamil binding site of the L-type calcium channel; assay: Inhibition of [3H]D888 binding to the verapamil binding site of the L-type calcium channel (rat cerebral cortex membranes); details: 10 μmol/l of test substance
Protocol: 200-250 g male Sprague-Dawley rats are sacrificed by decapitation. Cerebral cortices are quickly dissected on ice and homogenized in a 20 mmol/l Tris-HCl (pH 7.4) buffer containing 250 mmol/l sucrose (buffer A). The homogenate is centrifuged at 30,000 g for 15 min at 4° C. The resulting crude membrane pellet is resuspended in a 50 mmol/l Tris-HCl (pH 7.4) buffer and incubated 15 min at 37° C. before being centrifuged at 30,000×g for 15 min at 4° C. After two more washes under the same conditions, the final pellet is resuspended in buffer A at a protein concentration ranging from 15 to 25 mg/ml and stored in liquid nitrogen.
Binding experiments are essentially performed according to Reynolds J. et al., J. Pharmacol. Exp. Ther. (1986), 237, 731-738. (1986) with slight modifications.
Membranes (120-175 μg/assay) are incubated at 25° C. for 60 min in 0.5 ml of a 50 mmol/l Tris-HCl buffer (pH 7.4) containing 2 mmol/l MgCl2, 0.2 to 0.4×10-9 mol/l of [^3H]D888 (85 Ci/mmol; Amersham, Belgium) and 10 μmol/l of the test substance. The non specific binding (NSB) is defined as the residual binding observed in the presence 10 μM verapamil. Membrane-bound and -free radioligands are separated by rapid filtration through glass fiber filters (equivalent to Whatman GF/C or GF/B; VEL, Belgium) presoaked in 0.1% polyethyleneimine to reduce non specific binding. Samples and filters are rinsed by at least 6 ml of 50 mmol/l Tris-HCl (pH 7.4) buffer. […] The radioactivity trapped onto the filters is counted by liquid scintillation in a β-counter.
The inhibition of the radioligand specific binding is calculated as follows: [formula] • where BI and Bo represent the binding observed in the presence and absence of the test substance respectively; and • BNS is the non specific binding.
Data analysis is performed by a computerized non linear curve fitting method using a set of equations describing several binding models assuming competitive interactions between ligands (Weiland G. A. and P. B. Molinoff Life Science (1981), 29, 313-330; Molinoff P. et al. (1981) Life Sci., 29, 427-443).

[2] = test system: isolated rat aorta contracted by 100 mM KCl; assay: Effect of compound on isolated rat aorta contracted by 100 mM KCl; details: 10^−5 M; contraction by 100 mM KCl
Protocol: Rat thoracic aorta depolarized by 100 mM KCl develops a contraction induced by an influx of Ca^2+ into the smooth muscle cell. An inhibition of this contraction could predict a Ca^2+ antagonist activity.
The method was adapted from Polster P. et al., J. Pharmacol. Exp. Ther. (1990), 255, 593: rings of thoracic aorta were prepared from male Wistar rats (250-400 g) and mounted under an optimal resting tension of 2 g in 10 ml organ baths containing modified Krebs' solution (NaCl 112 mM, NaHCO3 25 mM, KCl 5 mM, MgSO4 1.2 mM, CaCl2 2.5 mM, KH2PO4 1 mM and glucose 11.5 mM, pH 7.4). The bathing solution was maintained at a temperature of 37° C. and gassed with 95% O2 and 5% CO2. Isometric contractions were measured with a force transducer connected to an amplifier. A computer system was used to control data acquisition and fluid circulation through electrovalves. Drugs were manually injected into the bath.
Each ring was allowed to equilibrate for 60 min in the modified Krebs' solution. […] After obtaining two reproducible control contractions, a 3rd contraction was induced and the test compound was added to the bathing medium for 2 hours. Only preparation in which the contractions were matched were used. Each tissue received only one concentration of the test compound. Appropriate control experiments were conducted in order to test the effect of the solvant.
To normalize data, the change in tension due to the drug was compared to the change of tension due to the solvant and expressed as percentage of the induced relaxation of the initial contraction. Raw data were processed by a computer system and the pD′2 value was calculated following the method of Van Rossum J. M. et al., Arch. Int. Pharmacodyn. Ther. (1963), 143, 299.

NK1 receptors = NK1 receptors (Homo sapiens, UniProt P25103); assay: Binding of [4,5-3H-Leu10] substance P to human recombinant NK1 receptors expressed in CHO cell membranes; design: host or cells: CHO cells; details: pIC50 = -log IC50, concentration inhibiting by 50% the specific binding of [4,5-3H] substance P; tested as the free base/salt given in c1
Sequence of NK1 receptors (P25103 whole entry): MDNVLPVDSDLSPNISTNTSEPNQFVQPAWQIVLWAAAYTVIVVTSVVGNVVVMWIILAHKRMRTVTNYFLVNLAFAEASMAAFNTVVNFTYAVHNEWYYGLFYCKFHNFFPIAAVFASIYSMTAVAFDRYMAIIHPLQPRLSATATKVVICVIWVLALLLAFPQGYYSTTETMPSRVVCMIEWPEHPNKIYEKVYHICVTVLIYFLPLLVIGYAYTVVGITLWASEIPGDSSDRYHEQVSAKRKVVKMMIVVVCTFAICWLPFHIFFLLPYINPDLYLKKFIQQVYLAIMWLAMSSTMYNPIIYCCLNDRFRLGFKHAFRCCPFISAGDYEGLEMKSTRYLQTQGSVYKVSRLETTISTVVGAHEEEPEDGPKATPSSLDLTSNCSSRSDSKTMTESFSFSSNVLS
Protocol: The following test was designed to assess the affinity of test substances for human recombinant NK1 receptors expressed in Chinese Hamster Ovarian (CHO) cells.
CHO cells expressing the human recombinant NK1 receptor are used. The cells were obtained from Euroscreen (Brussels, Belgium).
Cells expressing the human NK1 receptor are routinely cultured in 175 cm2 flasks containing 75 ml of medium F12 (Ham) enriched with 2 mmol/l L-glutamine, 100 IU/ml penicilline, 100 μg/ml streptomycine, 1% sodium pyruvate, 2.5 μg/ml fungizone amphotericin B, 400 μg/ml geneticin and supplemented with 10% foetal calf serum. […] When subcultured, the cells are seeded at a concentration of 50,000 cells/cm2.
Confluent cells are gently scraped and resuspended in 25 ml of phosphate buffered saline without calcium and magnesium. The cellular suspension is centrifuged at 1500×g for 3 min (4° C.). The cell pellet is homogenized in a 15 mmol/l Tris-HCl (pH 7.5) buffer, 2 mmol/l MgCl2, 0.3 mmol/l EDTA, 1 mmol/l EGTA. The crude membrane fraction is collected by two consecutive centrifugation steps at 40,000×g for 25 min (4° C.). The final pellet is resuspended in 20 mmol/l Tris-HCl (pH 7.4), 250 mmol/l sucrose buffer at a protein concentration ranging from 2 to 6 mg/ml and stored in liquid nitrogen. • 1.2.2. Test Design
The inhibition constant (Ki) is determined using increasing concentrations of the test substance. The concentration range usually encompasses 6 log units with variable steps (0.3 to 1 log). Assays are performed in mono- or duplicate.
Membranes are incubated at 25° C. for 60 min in 0.5 ml of a 50 mmol/l Tris-HCl buffer (pH 7.4) containing 2 mmol/l MgCl2, 100 μg/ml bacitracine, 0.1 to 0.4×10^−9 mol/l of [4,5^3H-Leu^10] substance P (specific activity>100 Ci/mmol) and increasing concentrations of the test substance. […] Membrane-bound and free radioligands are separated by rapid filtration through glass fiber filters (equivalent to Whatman GF/C or GF/B; VEL, Belgium) presoaked in 0.1% polyethyleneimine to reduce non specific binding. Samples and filters are rinsed by at least 6 ml of 50 mmol/l Tris-HCl (pH 7.4) buffer.
Initial values for the different variables may be provided by the experimenter.

Structure (SMILES)	% inhibition of [3H]D888 binding to the verapamil binding site of the L-type calcium channel [1]	Result: effect of compound on isolated rat aorta contracted by 100 mM KCl [2]	IC50 (NK1 receptors) [µM]
O=S(=O)(O)CCCN1CCN(C(COCc2cc(C(F)(F)F)cc(C(F)(F)F)c2)c2ccccc2)CC1 (racemic) [Compound 160]	0 (0: inhibition < 20%)	inactive à 10^−5 M	0.0316
O=C(O)CCCCCN1CCN(C(COCc2cc(C(F)(F)F)cc(C(F)(F)F)c2)c2ccccc2)CC1 (racemic) [Compound 234, 6-{4-[2-(3,5-Bis-trifluoromethyl-benzyloxy)-1-phenyl-ethyl]-piperazin-1-yl}-hexanoic acid]	0 (0: inhibition < 20%)	–	0.0158
O=C(O)c1ccccc1CN1CCN(C(COCc2cc(C(F)(F)F)cc(C(F)(F)F)c2)c2ccccc2)CC1 (racemic) [Compound 241]	+ (+: inhibition comprised between 20 and 50%)	–	0.00794
O=C(O)CN1CCN(C(COCc2cc(C(F)(F)F)cc(C(F)(F)F)c2)c2ccc(Br)cc2)CC1 (racemic) [Compound 250]	+ (+: inhibition comprised between 20 and 50%)	–	0.0794
CNC(=O)CN1CCN(C(COCc2cc(C(F)(F)F)cc(C(F)(F)F)c2)c2ccccc2)CC1 (racemic) [Compound 292, 2-{4-[2-(3,5-Bis-trifluoromethyl-benzyloxy)-1-phenyl-ethyl]-piperazin-1-yl}-N-methyl-acetamide]	+ (+: inhibition comprised between 20 and 50%)	–	0.0158
CC(OCC(c1ccccc1)N1CCN(CC(=O)O)CC1)c1cc(C(F)(F)F)cc(C(F)(F)F)c1 (single isomer, unassigned) [Compound 273]	0 (0: inhibition < 20%)	–	0.00316
CC(OCC(c1ccccc1)N1CCN(CC(=O)O)CC1)c1cc(C(F)(F)F)cc(C(F)(F)F)c1 (single isomer, unassigned) [Compound 274]	0 (0: inhibition < 20%)	–	0.0126
O=C(O)CN1CCN([C@@H](COCc2cc(C(F)(F)F)cc(C(F)(F)F)c2)c2ccccc2)CC1 [Compound 231]	0 (0: inhibition < 20%)	–	0.0794
O=C(O)COCCN1CCN([C@@H](COCc2cc(C(F)(F)F)cc(C(F)(F)F)c2)c2ccccc2)CC1 [Compound 237]	0 (0: inhibition < 20%)	inactive à 10^−5 M	–
C[C@@H](OC[C@@H](c1ccccc1)N1CCN(CC(=O)O)CC1)c1cc(C(F)(F)F)cc(C(F)(F)F)c1 [Compound 277]	0 (0: inhibition < 20%)	–	0.01
C[C@@H](OC[C@@H](c1ccccc1)N1CCN(CCOCC(=O)O)CC1)c1cc(C(F)(F)F)cc(C(F)(F)F)c1 [Compound 281]	+ (+: inhibition comprised between 20 and 50%)	inactive à 10^−5 M	–
N#CCN1CCN([C@H](COCc2cc(C(F)(F)F)cc(C(F)(F)F)c2)c2ccccc2)CC1 [Compound 291, (S)-{4-[2-(3,5-Bis-trifluoromethyl-benzyloxy)-1-phenyl-ethyl]-piperazin-1-yl}-acetonitrile]	0 (0: inhibition < 20%)	–	0.0251
CC(OCC(c1ccccc1)N1CCN(CCCCc2nnn[nH]2)CC1)c1cc(C(F)(F)F)cc(C(F)(F)F)c1 (centres unmarked) [Compound 302]	+ (+: inhibition comprised between 20 and 50%)	–	0.00398
CS(=O)(=O)NC(=O)COCCN1CCN(C(COCc2cc(C(F)(F)F)cc(C(F)(F)F)c2)c2ccccc2)CC1 (centres unmarked) [Compound 305, N-[(2-{4-[2-(3,5-Bis-trifluoromethyl-benzyloxy)-1-phenyl-ethyl]-piperazin-1-yl}-ethoxy)-acetyl]-methanesulfonamide]	0 (0: inhibition < 20%)	–	0.0794
O=C(COCCN1CCN(C(COCc2cc(C(F)(F)F)cc(C(F)(F)F)c2)c2ccccc2)CC1)NS(=O)(=O)c1ccccc1 (centres unmarked) [Compound 306, N-[(2-{4-[2-(3,5-Bis-trifluoromethyl-benzyloxy)-1-phenyl-ethyl]-piperazin-1-yl}-ethoxy)-acetyl]-benzenesulfonamide]	+ (+: inhibition comprised between 20 and 50%)	–	0.0316
Cc1ccc(S(=O)(=O)NC(=O)OCCN2CCN(C(COCc3cc(C(F)(F)F)cc(C(F)(F)F)c3)c3ccccc3)CC2)cc1 (centres unmarked) [Compound 307, N-p-toluenesulfonic-carbamic acid 2-{4-[2-(3,5-bis-trifluoromethyl-benzyloxy)-1-phenyl-ethyl]-piperazin-1-yl}-ethyl ester]	+ (+: inhibition comprised between 20 and 50%)	–	0.0158
O=C(O)C1CCC(N2CCN(C(COCc3cc(C(F)(F)F)cc(C(F)(F)F)c3)c3ccccc3)CC2)CC1 (stereo not drawn) [Compound 313, cis- or trans-4-{4-[2-(3,5-Bis-trifluoromethyl-benzyloxy)-1-phenyl-ethyl]-piperazin-1-yl}-cyclohexanecarboxylic acid]	0 (0: inhibition < 20%)	–	0.0158
